Measured values: PMC2212834 (The Journal of Experimental Medicine, 2005)

Target: T1, ChemR23 (Homo sapiens, UniProt Q99788)
T1 sequence (Q99788 1-373): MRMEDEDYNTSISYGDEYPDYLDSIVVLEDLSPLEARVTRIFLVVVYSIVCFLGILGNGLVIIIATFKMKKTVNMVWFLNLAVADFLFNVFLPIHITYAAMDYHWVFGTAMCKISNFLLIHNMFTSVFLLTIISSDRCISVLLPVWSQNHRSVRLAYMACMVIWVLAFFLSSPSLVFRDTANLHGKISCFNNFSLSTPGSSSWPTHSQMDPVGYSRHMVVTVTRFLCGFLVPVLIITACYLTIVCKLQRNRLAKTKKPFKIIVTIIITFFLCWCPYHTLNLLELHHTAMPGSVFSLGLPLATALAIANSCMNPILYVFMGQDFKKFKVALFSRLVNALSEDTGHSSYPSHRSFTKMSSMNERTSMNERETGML
Assay: [3H]-RvE1 saturation radioligand binding
Type: cell-based

Kd: 0.0113 ± 0.0054 µM
SMILES: CC[C@@H](O)/C=C/C=C\C[C@@H](O)/C=C/C=C/C=C\[C@@H](O)CCCC(=O)O [RvE1, 5S,12R,18R-trihydroxy-6Z,8E,10E,14Z,16E-EPA]
